Experimental data as given in US20150141381A1, “TETRACYCLINE COMPOUNDS HAVING TARGET THERAPEUTIC ACTIVITIES” (Paratek Pharmaceuticals, Inc., priority 2001, published 2015).
Read-outs that look alike come from different tables or passages of the source.

Tests used:
[1] = tested on: S. aureus RN450; assay: In Vitro Anti-Bacterial Activity Assay (MIC), gram positive; assay type: cell-based; conditions: for MIC: Staphylococcus aureus, RN450, 18 h
[2] = tested on: E. coli mL308 225; assay: In Vitro Anti-Bacterial Activity Assay (MIC), gram negative; assay type: cell-based; conditions: for MIC: Escherichia coli, ML308225, 18 h
[3] = gram positive bacteria, read-out: Antibiotic Activity Gram + (MIC)
[4] = gram negative bacteria, read-out: Antibiotic Activity Gram − (MIC)
[5] = MIC class, Table 3, read-out: Antibiotic Activity Gram +
[6] = MIC class, Table 3, read-out: Antibiotic Activity Gram −
[7] = MIC class, Table 3 (Continued), read-out: Gram+ activity
[8] = MIC class, Table 3 (Continued), read-out: Gram− activity

Structure (SMILES) | MIC [1, 3] | MIC [2, 4] | MIC [1, 5] | MIC [2, 6] | further results
CN(C)c1cc(NCC2CCCCC2)c(O)c2c1C[C@H]1C[C@H]3[C@H](N(C)C)C(O)=C(C(N)=O)C(=O)[C@@]3(O)C(O)=C1C2=O | > 4 mg/L | > 4 mg/L | – | – | –
CCc1cc(CN2CCC(F)(F)CC2)c(O)c2c1C[C@H]1C[C@H]3[C@H](N(C)C)C(O)=C(C(N)=O)C(=O)[C@@]3(O)C(O)=C1C2=O [drawing 3695] | < 4 mg/L | < 4 mg/L | – | – | –
CN(C)[C@H]1C(O)=C(C(N)=O)C(=O)[C@@]2(O)C(O)=C3C(=O)c4c(O)ccc(-c5ccc(/N=C\NC(C)(C)C)cc5)c4C[C@H]3C[C@@H]12 [GU] | – | – | < 4 mg/L | < 4 mg/L | –
CN(C)[C@H]1C(O)=C(C(N)=O)C(=O)[C@@]2(O)C(O)=C3C(=O)c4c(O)ccc(-c5ccc(NC(=O)C6CC6)cc5)c4C[C@H]3C[C@@H]12 [GQ] | – | – | < 4 mg/L | > 4 mg/L | –
Cc1ccc(OC(=O)Nc2ccc(O)c3c2C[C@H]2C[C@H]4[C@H](N(C)C)C(O)=C(C(N)=O)C(=O)[C@@]4(O)C(O)=C2C3=O)cc1 [AV] | – | – | – | – | MIC ([1]; read-out: Antibiotic Activity Gram +): < 4 mg/L; MIC ([2]; read-out: Antibiotic Activity Gram −): < 4 mg/L
CN(C)c1cc(CC2=COc3ccccc3C2)c(O)c2c1C[C@H]1C[C@H]3[C@H](N(C)C)C(O)=C(C(N)=O)C(=O)[C@@]3(O)C(O)=C1C2=O | < 4 mg/L | > 4 mg/L | – | – | –
CN(C)[C@@H]1C(O)=C(C(N)=O)C(=O)[C@@]2(O)C(O)=C3C(=O)c4c(O)c(C(C)(C)C)cc(-c5ccc6c(c5)OCO6)c4C[C@H]3C[C@@H]12 | > 4 mg/L | > 4 mg/L | – | – | –
CN(C)c1cc(CNCc2ccc(OC(F)(F)F)cc2)c(O)c2c1C[C@H]1C[C@H]3[C@H](N(C)C)C(O)=C(C(N)=O)C(=O)[C@@]3(O)C(O)=C1C2=O [PJ] | – | – | < 4 mg/L | > 4 mg/L | –
CCCc1cc(N(C)C)c2c(c1O)C(=O)C1=C(O)[C@]3(O)C(=O)C(C(N)=O)=C(O)[C@@H](N(C)C)[C@@H]3C[C@@H]1C2 | < 4 mg/L | > 4 mg/L | – | – | –
CN(C)c1ccc(O)c2c1C[C@H]1C[C@H]3[C@H](N(C)C)C(O)=C(C(=O)NCNC(=O)CCl)C(=O)[C@@]3(O)C(O)=C1C2=O [DN] | – | – | < 4 mg/L | > 4 mg/L | –
CN(C)CCNC(=O)c1ccc(-c2ccc(O)c3c2C[C@H]2C[C@H]4[C@H](N(C)C)C(O)=C(C(N)=O)C(=O)[C@@]4(O)C(O)=C2C3=O)cc1 | < 4 mg/L | > 4 mg/L | – | – | –
COC(=O)c1ccc(-c2ccc(O)c3c2C[C@H]2C[C@H]4[C@H](N(C)C)C(O)=C(C(N)=O)C(=O)[C@@]4(O)C(O)=C2C3=O)cc1 | – | – | – | – | MIC [1, 7]: < 4 mg/L; MIC [2, 8]: < 4 mg/L
CN(C)c1cc(CO)c(O)c2c1C[C@H]1C[C@H]3[C@H](N(C)C)C(O)=C(C(N)=O)C(=O)[C@@]3(O)C(O)=C1C2=O | < 4 mg/L | > 4 mg/L | – | – | –
CN(C)[C@@H]1C(O)=C(C(N)=O)C(=O)[C@@]2(O)C(O)=C3C(=O)c4c(O)ccc(C#Cc5ccc(N(O)O)cc5)c4C[C@H]3C[C@@H]12 | – | – | – | – | MIC [1, 7]: < 4 mg/L; MIC [2, 8]: < 4 mg/L
CN(C)[C@@H]1C(O)=C(C(N)=O)C(=O)[C@@]2(O)C(O)=C3C(=O)c4c(ccc(N)c4O)C[C@H]3C[C@@H]12 [JU] | – | – | < 4 mg/L | < 4 mg/L | –
C[C@H]1c2ccc(C(C)(C)C)c(O)c2C(=O)C2=C(O)[C@]3(O)C(=O)C(C(N)=O)=C(O)[C@@H](N(C)C)[C@@H]3[C@@H](O)[C@@H]21 [O] | – | – | < 4 mg/L | > 4 mg/L | –
CC(C)CN(C=O)Cc1cc(N(C)C)c2c(c1O)C(=O)C1=C(O)[C@]3(O)C(=O)C(C(N)=O)=C(O)[C@@H](N(C)C)[C@@H]3C[C@@H]1C2 | > 4 mg/L | > 4 mg/L | – | – | –
CN(C)[C@@H]1C(O)=C(C(N)=O)C(=O)[C@@]2(O)C(O)=C3C(=O)c4c(O)ccc(C5CCCC5)c4C[C@H]3C[C@@H]12 | < 4 mg/L | < 4 mg/L | – | – | –
CN(C)c1cc(C#Cc2ccccn2)c(O)c2c1C[C@H]1C[C@H]3[C@H](N(C)C)C(O)=C(C(N)=O)C(=O)[C@@]3(O)C(O)=C1C2=O [BA] | – | – | > 4 mg/L | > 4 mg/L | –
CN(C)c1cc(CN2CCC(C(F)F)CC2)c(O)c2c1C[C@H]1C[C@H]3[C@H](N(C)C)C(O)=C(C(N)=O)C(=O)[C@@]3(O)C(O)=C1C2=O | < 4 mg/L | < 4 mg/L | – | – | –

Structure (SMILES) | MIC [1, 3] | MIC [2, 4] | MIC [1, 5] | MIC [2, 6] | further results
COCC(C)CN(C)Cc1cc(N(C)C)c2c(c1O)C(=O)C1=C(O)[C@]3(O)C(=O)C(C(N)=O)=C(O)[C@@H](N(C)C)[C@@H]3C[C@@H]1C2 (some centres unmarked) | < 4 mg/L | > 4 mg/L | – | – | –
CN(C)C1C(O)=C(C(N)=O)C(=O)[C@@]2(O)C(O)=C3C(=O)c4c(O)ccc(-c5ccc(NC(=O)Nc6ccc(OC(F)(F)F)cc6)cc5)c4C[C@H]3C[C@@H]12 (some centres unmarked) [GV] | – | – | > 4 mg/L | > 4 mg/L | –
CC(C)CNCc1cc(N(C)C)c2c(c1O)C(=O)C1=C(O)[C@]3(O)C(=O)C(C(N)=O)=C(O)[C@@H](N(C)C)[C@@H]3C[C@@H]1C2 [drawing 3371] | – | – | – | – | Antibiotic Activity Gram + (MIC) ([1]; gram positive bacteria): ** (compounds with MIC less than or equal to 4 μg/ml are indicated with **); Antibiotic Activity Gram − (MIC) ([2]; gram negative bacteria): ** (compounds with MIC less than or equal to 4 μg/ml are indicated with **)
CN(C)Cc1cc(-c2ccc(O)c3c2C[C@H]2C[C@H]4[C@H](N(C)C)C(O)=C(C(N)=O)C(=O)[C@@]4(O)C(O)=C2C3=O)ccc1F [OQ] | – | – | < 4 mg/L | < 4 mg/L | –
COc1ccc(CNCc2ccc(-c3ccc(O)c4c3C[C@H]3C[C@H]5[C@H](N(C)C)C(O)=C(C(N)=O)C(=O)[C@@]5(O)C(O)=C3C4=O)cc2)cc1 [GX] | – | – | < 4 mg/L | < 4 mg/L | –
COc1ccc(CN2CCCC2)cc1-c1ccc(O)c2c1C[C@H]1C[C@H]3C(N(C)C)C(O)=C(C(N)=O)C(=O)[C@@]3(O)C(O)=C1C2=O (some centres unmarked) [ED] | – | – | < 4 mg/L | < 4 mg/L | –
CN(C)[C@@H]1C(O)=C(C(N)=O)C(=O)[C@@]2(O)C(O)=C3C(=O)c4c(O)ccc(C#N)c4C[C@H]3C[C@@H]12 | < 4 mg/L | < 4 mg/L | – | – | –
CC(C)COC(=O)NCc1ccc(-c2ccc(O)c3c2C[C@H]2C[C@H]4[C@H](N(C)C)C(O)=C(C(N)=O)C(=O)[C@@]4(O)C(O)=C2C3=O)cc1 | < 4 mg/L | > 4 mg/L | – | – | –
CN(C)c1cc(CN2CCOCC2)c(O)c2c1C[C@H]1C[C@H]3[C@H](N(C)C)C(O)=C(C(N)=O)C(=O)[C@@]3(O)C(O)=C1C2=O | < 4 mg/L | > 4 mg/L | – | – | –
CC(=O)Nc1cc(-c2ccccn2)c2c(c1O)C(=O)C1=C(O)[C@]3(O)C(=O)C(C(N)=O)=C(O)[C@@H](N(C)C)[C@@H]3C[C@@H]1C2 | < 4 mg/L | > 4 mg/L | – | – | –
CCCCOCCCNCc1ccc(OC)c(-c2ccc(O)c3c2C[C@H]2C[C@H]4[C@H](N(C)C)C(O)=C(C(N)=O)C(=O)[C@@]4(O)C(O)=C2C3=O)c1 [FR] | – | – | < 4 mg/L | < 4 mg/L | –
CN(C)[C@@H]1C(O)=C(C(N)=O)C(=O)[C@@]2(O)C(O)=C3C(=O)c4c(O)ccc(-c5ccc(CN6CCOCC6)c6ccccc56)c4C[C@H]3C[C@@H]12 | < 4 mg/L | < 4 mg/L | – | – | –
CN(C)c1ccc(O)c2c1C[C@H]1C[C@H]3CC(O)=C(C(N)=O)C(=O)[C@@]3(O)C(O)=C1C2=O | < 4 mg/L | < 4 mg/L | – | – | –
CN(C)[C@@H]1C(O)=C(C(N)=O)C(=O)[C@@]2(O)C(O)=C3C(=O)c4c(O)ccc(Cl)c4[C@](C)(O)[C@H]3C[C@@H]12 | < 4 mg/L | > 4 mg/L | – | – | –
CN(C)C1C(O)=C(C(N)=O)C(=O)[C@@]2(O)C(O)=C3C(=O)c4c(O)ccc(-c5ccc(CN6CCCC6)cc5)c4C[C@H]3C[C@@H]12 (some centres unmarked) [BT] | – | – | < 4 mg/L | < 4 mg/L | –
CN(C)c1cc(CNCC(C)(C)C)c(O)c2c1C[C@H]1C[C@H]3[C@H](N(C)C)C(O)=C(C(N)=O)C(=O)[C@@]3(O)C(O)=C1C2=O [drawing 3433] | < 4 mg/L | > 4 mg/L | – | – | –
C[C@H]1c2cccc(O)c2C(=O)C2=C(O)[C@]3(O)C(=O)C(C(N)=O)=C(O)[C@@H](N(C)C)[C@@H]3[C@@H](O)[C@@H]21 [A] | – | – | < 4 mg/L | < 4 mg/L | –
CN(C)c1cc(CNCc2ccc(C#N)cc2)c(O)c2c1C[C@H]1C[C@H]3[C@H](N(C)C)C(O)=C(C(N)=O)C(=O)[C@@]3(O)C(O)=C1C2=O | < 4 mg/L | > 4 mg/L | – | – | –
CN(C)[C@@H]1C(OCc2ccccc2)=C(C(N)=O)C(=O)[C@@]2(O)C(O)=C3C(=O)c4c(O)cccc4C[C@H]3C[C@@H]12 | > 4 mg/L | > 4 mg/L | – | – | –
CN(C)[C@@H]1C(O)=C(C(N)=O)C(=O)[C@@]2(O)C(O)=C3C(=O)c4c(O)ccc(-c5ccc(F)c(F)c5)c4C[C@H]3C[C@@H]12 | < 4 mg/L | < 4 mg/L | – | – | –
